Some results are limits rather than exact numbers.

On the set-up of data set [1]: method as in PMID 29859954, PMID 28479360. As to conditions: descriptors originally obtained with ACDLabs Software, cited from earlier work; for logD7.4 (predicted): pH 7.4.
Another data set deals with ARPE-19mel cells. Put plainly: Melanosomal drug uptake assay in re-pigmented ARPE-19mel cells (medium concentration vs non-pigmented ARPE-19, LC-MS/MS). The conditions noted are these: 4 µM drug, 20 hours; for Melanosomal drug uptake (%), average: serum-free medium; for Melanosomal drug uptake (fraction of administered compound in the melanosomes): ARPE-19mel cells, pigmentation stage not specified. The class given is in vitro ADME, human.

Setting [2] is: 10 % stage of pigmentation (7 µg melanin/well).
The mark [3] stands for this setting: 30 % stage of pigmentation (20 µg melanin/well).
Where [4] appears, read: 100 % stage of pigmentation (68 µg melanin/well).

Procedure for ARPE-19mel cells: Uptake of six different drugs (Table 1) was studied in non-pigmented ARPE-19 cells and pigmented ARPE-19mel cells. The melanosome administration was conducted as described above using three melanosome doses (corresponding to 7 µg, 20 µg and 68 µg of melanin). These melanosome doses correspond to 10, 30 and 100% levels of pigmentation. The highest external melanosome dose (68 µg) results in similar cellular pigmentation with the native pRPE (i.e. normalized as 100%).
Drug uptake study was initiated 4–5 days after melanosome feeding. The experiments were conducted in 2–6 replicate wells, separately for each compound. The cells were exposed to 4 µM of each drug for 20 hours in serum-free culture medium. Then, samples from the medium samples were collected and diluted 2:5 into acetonitrile (ACN) with 0.2% formic acid. The samples were centrifuged at 15 000 g for 5 min, and the supernatant was collected and diluted 1:10 into mixture of ACN-water (60:40). Finally, internal standards were added at final concentration of 100 nM. Different internal standards were used for each compound (Table 1). The melanin amounts in the wells were measured after the uptake experiment (see above).
Drugs were quantitated with liquid chromatography mass spectrometry (LC-MS) analyses that were carried out with Acquity i-class UPLC (Waters, Massachusetts, USA) coupled with Xevo TQ-S triple quadrupole mass spectrometry (Waters). […] Chromatographic separation for all six compounds was carried out using Waters HSS-T3 column (2.1 × 100 mm, 1.8 µm) and gradient run. The mobile phases were prepared as binary phases. Phase A was purified water with 0.1% of formic acid and phase B contained 100% lc-ms grade acetonitrile (Chromasolv^TM). […] Total run time was 9 minutes including column flush and stabilization to the initial state. […] Flow through needle system was used.
Electrospray ionization on positive mode was used in the analyses. […] Nitrogen was used as a desolvation gas (Aga, Helsinki, Finland) and argon as a collision gas (Aga). Capillary and cone voltages, collision energy and dwell time were tuned individually for each compound (Table 2). […] Minimum of eight calibration curve levels were used for quantification while quality control (QC) samples used to monitor precision and bias of the assay. Data were processed with MassLynx V4.1 software (Waters).
The melanosomal drug uptake was calculated using the Eq. 1 below:1 Melanosomaldruguptake(%)=(1−CmediumARPE−19mel/CmediumARPE−19)×100%

In the case of `CC(C)(C)NC[C@H](O)COc1nsnc1N1CCOCC1` [timolol], the “pKa, most basic” value in data set [1] was 9.4. For the same compound, the “logD7.4 (predicted)” value in data set [1] was −0.6. For the same compound, the entries for the “Melanosomal drug uptake (%), average” value with ARPE-19mel cells (setting [2]), with ARPE-19mel cells (setting [3]) and in the data set with ARPE-19mel cells (setting [4]) were 17.6%, 31.2% and 48.2%, respectively.

As to `O=C(O)Cc1ccccc1Nc1c(Cl)cccc1Cl` [diclofenac], the “logD7.4 (predicted)” value in data set [1] is reported as 1.4. Also, the “Melanosomal drug uptake (%), average” value came out at 0.8% in the data set with ARPE-19mel cells (setting [2]), 1.2% in the data set on ARPE-19mel cells (setting [3]) and 3.7% with ARPE-19mel cells (setting [4]). The “Melanosomal drug uptake (fraction of administered compound in the melanosomes)” value with ARPE-19mel cells is listed as less than 5%.

For the compound `CN(Cc1cnc2nc(N)nc(N)c2n1)c1ccc(C(=O)N[C@@H](CCC(=O)O)C(=O)O)cc1` [methotrexate], the “pKa, most acidic” value in data set [1] is 3.5. Moreover, the “logD7.4 (predicted)” value in data set [1] is on record as −5.1. Also, the “Melanosomal drug uptake (%), average” value in the data set with ARPE-19mel cells (setting [2]) is given as 5.1%; in the data set with ARPE-19mel cells (setting [3]) it was 3.9%; with ARPE-19mel cells (setting [4]), 3.5%. For the same compound, the “Melanosomal drug uptake (fraction of administered compound in the melanosomes)” value in the data set on ARPE-19mel cells was less than 5%.

Consider `CC[C@@H]1C(=O)OC[C@@H]1Cc1cncn1C` [pilocarpine], for which, in data set [1], the “pKa, most basic” value is reported as 7.02. Besides, the “logD7.4 (predicted)” value in data set [1] is recorded as −0.4. Also, the figures for the “Melanosomal drug uptake (%), average” value in the data set with ARPE-19mel cells (setting [2]), in the data set on ARPE-19mel cells (setting [3]) and with ARPE-19mel cells (setting [4]) were 11.5%, 23.5% and 30.2%, respectively.

Turning to `CC(C)NCC(O)COc1cccc2ccccc12` (centres unmarked) [propranolol], the “Melanosomal drug uptake (%), average” value in the data set on ARPE-19mel cells (setting [2]) worked out at 34.1%; with ARPE-19mel cells (setting [3]) it was 76.1%; with ARPE-19mel cells (setting [4]), 92.2%. Further, in the data set on ARPE-19mel cells, the “Melanosomal drug uptake (fraction of administered compound in the melanosomes)” value was more than 90%.

Turning to `CCN(CC)CCCC(C)Nc1ccnc2cc(Cl)ccc12` (centres unmarked) [chloroquine], the results for the “Melanosomal drug uptake (%), average” value in the data set on ARPE-19mel cells (setting [2]), in the data set with ARPE-19mel cells (setting [3]) and with ARPE-19mel cells (setting [4]) were 80.3%, 93.3% and 96.7%, respectively. For the same compound, in the data set on ARPE-19mel cells, the “Melanosomal drug uptake (fraction of administered compound in the melanosomes)” value is more than 90%.

The values above are taken from publication PMC6760193, “Characterization of artificially re-pigmented ARPE-19 retinal pigment epithelial cell model” (Scientific Reports, 2019).
